These are literature values, as cited in PMC4112557 (Bioconjugate Chemistry, 2014).

This series concerns the target PSMA (Homo sapiens, UniProt Q04609). As to conditions: hydrolysis of NAAG in the amplex red assay.

Where a SMILES comes first, the peptide text is derived from it.

Chain of PSMA (Q04609 whole entry): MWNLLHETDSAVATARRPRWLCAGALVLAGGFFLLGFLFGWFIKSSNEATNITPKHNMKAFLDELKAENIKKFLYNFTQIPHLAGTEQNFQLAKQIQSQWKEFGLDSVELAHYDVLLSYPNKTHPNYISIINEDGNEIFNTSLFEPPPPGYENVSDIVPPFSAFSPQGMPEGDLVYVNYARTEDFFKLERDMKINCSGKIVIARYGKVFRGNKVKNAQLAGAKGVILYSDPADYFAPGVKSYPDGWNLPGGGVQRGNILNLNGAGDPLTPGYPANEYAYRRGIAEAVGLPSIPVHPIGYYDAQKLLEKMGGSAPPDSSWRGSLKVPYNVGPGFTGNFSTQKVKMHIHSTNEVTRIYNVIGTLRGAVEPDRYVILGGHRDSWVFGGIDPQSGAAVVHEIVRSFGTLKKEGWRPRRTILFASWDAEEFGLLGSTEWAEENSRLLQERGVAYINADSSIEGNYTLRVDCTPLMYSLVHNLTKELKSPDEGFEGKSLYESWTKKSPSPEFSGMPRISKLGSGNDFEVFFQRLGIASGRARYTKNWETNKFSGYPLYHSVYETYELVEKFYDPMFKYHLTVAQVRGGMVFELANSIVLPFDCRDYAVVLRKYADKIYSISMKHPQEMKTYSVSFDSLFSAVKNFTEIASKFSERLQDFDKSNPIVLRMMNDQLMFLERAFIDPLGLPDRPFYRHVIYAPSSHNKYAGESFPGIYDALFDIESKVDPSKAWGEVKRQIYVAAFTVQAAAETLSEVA

Regarding `CC(=O)N[C@@H](CC(=O)O)C(=O)N[C@@H](CCC(=O)O)C(=O)O` [NAAG, N-acetylaspartylglutamic acid] (Ac-Asp-Glu-OH), the Km is 1.15 µM.

For orientation: Km means the concentration of substrate that gives half-maximal velocity.
